Key:
MCF7 = assay: Cytotoxicity against ER-positive human MCF7 cells after 48 hr by SRB assay; conditions: MCF7, 48 h
MDA-MB-231 [1] = assay: Cytotoxicity against ER-negative human MDA-MB-231 cells after 48 hr by SRB assay; conditions: for IC50: MDA-MB-231, 48 h
PC-3 = assay: Cytotoxicity against AR-negative human PC3 cells after 48 hr by SRB assay; conditions: PC-3, 48 h
MRC5 = assay: Cytotoxicity against human MRC5 cells […] by SRB assay; format: cell-based
HT-29 = assay: Cytotoxicity against human HT-29 cells […] by SRB assay; format: functional, cell-based
MDA-MB-231 [2] = assay: Ratio of 17alpha-picolyl-androst-5-en 3beta, 17beta-diol IC50 to compound IC50 cytotoxicity against ER-negative human MDA-MB-231 cells after 48 hr by SRB assay
HeLa = assay: Cytotoxicity against human HeLa cells […] by SRB assay; format: functional, cell-based
MDA-MB-231 [3] = assay: Cytotoxicity against ER-negative human MDA-MB-231 cells at <1 uM after 48 hr by SRB assay

## C[C@]12CC[C@H](O)CC1=CC[C@@H]1[C@@H]2CC[C@@]2(C)[C@H]1CC[C@@]2(O)Cc1ccccn1
MCF7
  IC50: > 100 µM
MDA-MB-231 [1]
  Activity: Dose-dependent effect
  IC50: 96.1 µM
PC-3
  IC50: 6.3 µM
MRC5
  IC50: > 100 µM

## C[C@]12CC[C@H](O)[C@@H](O)C1=CC[C@@H]1[C@@H]2CC[C@@]2(C)[C@H]1CC[C@@]2(O)Cc1ccccn1
HT-29
  IC50: 2.6 µM
MDA-MB-231 [2]
  Ratio IC50: 17
MCF7
  IC50: > 100 µM
MDA-MB-231 [1]
  Activity: Dose-dependent effect
  IC50: 5.6 µM
HeLa
  IC50: 21.3 µM
PC-3
  IC50: 21.3 µM
MRC5
  IC50: > 100 µM

## C[C@]12CCC(=O)C(O)=C1C=C[C@@H]1[C@@H]2CC[C@@]2(C)[C@H]1CC[C@@]2(O)Cc1ccccn1
HT-29
  IC50: > 100 µM
MCF7
  IC50: 3.6 µM
MDA-MB-231 [1]
  Activity: Dose-dependent effect
  IC50: 1.2 µM
HeLa
  IC50: 36.6 µM
PC-3
  IC50: 25.6 µM
MRC5
  IC50: > 100 µM

## C[C@]12CCC(=O)C(O)=C1C=C[C@@H]1[C@@H]2CC[C@]2(C)/C(=C/c3ccccn3)CC[C@@H]12
MCF7
  IC50: > 100 µM
MDA-MB-231 [1]
  Activity: Dose-dependent effect
  IC50: 9.3 µM
PC-3
  IC50: > 100 µM
MRC5
  IC50: > 100 µM

## COC1=C2CC[C@@H]3[C@H](CC[C@]4(C)/C(=C/c5ccccn5)CC[C@@H]34)[C@@]2(C)CCC1=O
HT-29
  IC50: 56 µM
MCF7
  IC50: > 100 µM
MDA-MB-231 [1]
  Activity: Dose-dependent effect
  IC50: 4.1 µM
HeLa
  IC50: 15.3 µM
PC-3
  IC50: 34.1 µM
MRC5
  IC50: > 100 µM
MDA-MB-231 [3]
  Activity: 10%

## C[C@]12CC[C@H](O)C=C1CC[C@@H]1[C@@H]2CC[C@@]2(C)[C@H]1CC[C@@]2(O)Cc1ccccn1
HT-29
  IC50: > 100 µM
MCF7
  IC50: > 100 µM
MDA-MB-231 [1]
  Activity: Dose-dependent effect
  IC50: 3.8 µM
HeLa
  IC50: 26.9 µM
PC-3
  IC50: 22.3 µM
MRC5
  IC50: > 100 µM

## C[C@]12CCC(=O)C=C1C(=O)C[C@@H]1[C@@H]2CC[C@@]2(C)[C@H]1CC[C@@]2(O)Cc1ccccn1
HT-29
  IC50: > 100 µM
MCF7
  IC50: > 100 µM
MDA-MB-231 [1]
  Activity: Dose-dependent effect
  IC50: > 100 µM
HeLa
  IC50: > 100 µM
PC-3
  IC50: 4.3 µM
MRC5
  IC50: > 100 µM

## C[C@]12CCC=CC1=CC[C@@H]1[C@@H]2CC[C@@]2(C)[C@H]1CC[C@@]2(O)Cc1ccccn1
HT-29
  IC50: 11.7 µM
MCF7
  IC50: 17.4 µM
MDA-MB-231 [1]
  Activity: Dose-dependent effect
  IC50: 2.3 µM
HeLa
  IC50: 27.5 µM
PC-3
  IC50: 24.7 µM
MRC5
  IC50: > 100 µM

## C[C@]12CCC=CC1=CC[C@@H]1[C@@H]2CC[C@]2(C)/C(=C/c3ccccn3)CC[C@@H]12
HT-29
  IC50: 1.8 µM
MCF7
  IC50: 55.8 µM
MDA-MB-231 [1]
  Activity: Dose-dependent effect
  IC50: 4.6 µM
HeLa
  IC50: 23.3 µM
PC-3
  IC50: 19.9 µM
MRC5
  IC50: > 100 µM

## C[C@]12CC[C@H](O)[C@H](O)C1=CC[C@@H]1[C@@H]2CC[C@@]2(C)[C@H]1CC[C@@]2(O)Cc1ccccn1
HT-29
  IC50: 8 µM
MDA-MB-231 [2]
  Ratio IC50: 10
MCF7
  IC50: > 100 µM
MDA-MB-231 [1]
  Activity: Dose-dependent effect
  IC50: 9 µM
HeLa
  IC50: 26.6 µM
PC-3
  IC50: 52.1 µM
MRC5
  IC50: > 100 µM

## C[C@]12CC[C@H](O)C=C1CC[C@@H]1[C@@H]2CC[C@]2(C)/C(=C/c3ccccn3)CC[C@@H]12
MCF7
  IC50: > 100 µM
MDA-MB-231 [1]
  Activity: Dose-dependent effect
  IC50: > 100 µM
PC-3
  IC50: 10.1 µM
MRC5
  IC50: > 100 µM

## C[C@]12CC[C@H]3[C@@H](C[C@@H]4O[C@@]45C[C@@H](O)CC[C@]35C)[C@@H]1CC[C@@]2(O)Cc1cccc[n+]1[O-]
HT-29
  IC50: 25.8 µM
MCF7
  IC50: > 100 µM
MDA-MB-231 [1]
  Activity: Dose-dependent effect
  IC50: 7.5 µM
HeLa
  IC50: 33.5 µM
PC-3
  IC50: 33.6 µM
MRC5
  IC50: > 100 µM

## CC(=O)O[C@@H]1C=C2CC[C@@H]3[C@H](CC[C@@]4(C)[C@H]3CC[C@@]4(O)Cc3ccccn3)[C@@]2(C)CC1
HT-29
  IC50: 10.6 µM
MCF7
  IC50: > 100 µM
MDA-MB-231 [1]
  Activity: Dose-dependent effect
  IC50: 10.2 µM
HeLa
  IC50: > 100 µM
PC-3
  IC50: 31.3 µM
MRC5
  IC50: > 100 µM

## COc1cccc2c1C(=O)c1c(O)c3c(c(O)c1C2=O)C[C@@](O)(C(=O)CO)C[C@@H]3O[C@H]1C[C@H](N)[C@H](O)[C@H](C)O1 [DOXORUBICIN]
HT-29
  IC50: 0.32 µM
MCF7
  IC50: 0.75 µM
MDA-MB-231 [1]
  Activity: Dose-dependent effect
  IC50: 0.12 µM
HeLa
  IC50: 1.17 µM
PC-3
  IC50: 95.6 µM
MRC5
  IC50: 0.12 µM

## C[C@]12CCC(=O)C(O)=C1CC[C@@H]1[C@@H]2CC[C@]2(C)C(=O)CC[C@@H]12 [FORMESTANE]
HT-29
  IC50: > 100 µM
MCF7
  IC50: > 100 µM
MDA-MB-231 [1]
  Activity: Dose-dependent effect
  IC50: 55.5 µM
HeLa
  IC50: 5.55 µM
PC-3
  IC50: 48.4 µM
MRC5
  IC50: > 100 µM

## COC1=C2CC[C@@H]3[C@H](CC[C@@]4(C)[C@H]3CC[C@@]4(O)Cc3ccccn3)[C@@]2(C)CCC1=O
HT-29
  IC50: > 100 µM
MCF7
  IC50: > 100 µM
MDA-MB-231 [1]
  Activity: Dose-dependent effect
  IC50: 42.6 µM
HeLa
  IC50: 19.1 µM
PC-3
  IC50: 54.8 µM
MRC5
  IC50: > 100 µM

Reference: ChEMBL document CHEMBL2040837, “Synthesis and cytotoxic activity of some 17-picolyl and 17-picolinylidene androstane derivatives” (Eur J Med Chem, 2012)
